Like-named read-outs stand apart in the source and are kept apart here.
Columns and labels:
[1] = molecular target: glucoamylase from Aspergillus Niger (Aspergillus niger, UniProt P69328); details: for Relative Activity: raw corn starch, pH 5.3, 37° C., 20 min
Description: Thereafter, 40 μl of each pre-incubation solution was added to 15 mg raw corn starch, and the reaction mixture incubated at 37° C. for 20 minutes. The control reaction mixture contained substrate, enzyme, and buffer but no manganese ion. The starch hydrolysis reaction was stopped by combining the reaction mixture with a solution containing DNSA and heating for 30 min at 85° C. The absorbance of the control and test samples was measured at 562 nm to monitor the amount of reducing sugar in each sample.

[2] = molecular target: T1, α-amylase from bovine pancreas (Bos taurus, UniProt Q3MHH8); assay: hydrolysis of raw corn starch at pH 5.3 or 7.0, reducing sugar by DNSA; format: biochemical; details: for Relative Activity: 37° C., 20 min
T1 construct: The α-amylase from bovine pancreas; from tissue; host or cells: bovine pancreas
T1 sequence (Q3MHH8 16-511): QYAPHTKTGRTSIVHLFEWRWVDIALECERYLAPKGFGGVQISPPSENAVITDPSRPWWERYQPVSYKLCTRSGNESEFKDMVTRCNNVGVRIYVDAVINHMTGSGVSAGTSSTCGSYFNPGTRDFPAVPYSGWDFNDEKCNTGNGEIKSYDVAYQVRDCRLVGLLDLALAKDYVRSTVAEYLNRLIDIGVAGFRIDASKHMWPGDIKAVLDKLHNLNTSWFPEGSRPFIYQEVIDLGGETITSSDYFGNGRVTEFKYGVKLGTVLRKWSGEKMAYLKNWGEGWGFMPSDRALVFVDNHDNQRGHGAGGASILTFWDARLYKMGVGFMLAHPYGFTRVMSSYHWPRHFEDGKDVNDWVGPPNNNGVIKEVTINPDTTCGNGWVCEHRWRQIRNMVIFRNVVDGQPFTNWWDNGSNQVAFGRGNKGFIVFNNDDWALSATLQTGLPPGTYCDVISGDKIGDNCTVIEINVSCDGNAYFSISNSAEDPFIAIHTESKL

[3] = test system: glucoamylase from Rhizopus sp.; assay: pH effect on hydrolysis of raw corn starch; format: biochemical; details: for Relative Activity: 37° C., 20 min, control at pH 4 = 100
Description: Enzyme solutions of the glucoamylase from Rhizopus sp. Were prepared in various pH buffers having a pH of 3, 4, 5, 6, 7, or 8. Thereafter, 40 μl of the buffered enzyme solution and a stock solution containing Mn^++ were added to 6 samples containing 15 mg raw corn starch to provide a reaction mixture containing 1.0 mM Mn^++. The reaction mixtures were incubated at 37° C. for 20 minutes.

[4] = molecular target: α-amylase from Bacillus licheniformis (Bacillus licheniformis, UniProt P06278); assay: hydrolysis of cooked corn starch varieties; format: biochemical; details: pH 5.2, 37° C., 10 min
α-amylase from Bacillus licheniformis, sequence (P06278 30-512): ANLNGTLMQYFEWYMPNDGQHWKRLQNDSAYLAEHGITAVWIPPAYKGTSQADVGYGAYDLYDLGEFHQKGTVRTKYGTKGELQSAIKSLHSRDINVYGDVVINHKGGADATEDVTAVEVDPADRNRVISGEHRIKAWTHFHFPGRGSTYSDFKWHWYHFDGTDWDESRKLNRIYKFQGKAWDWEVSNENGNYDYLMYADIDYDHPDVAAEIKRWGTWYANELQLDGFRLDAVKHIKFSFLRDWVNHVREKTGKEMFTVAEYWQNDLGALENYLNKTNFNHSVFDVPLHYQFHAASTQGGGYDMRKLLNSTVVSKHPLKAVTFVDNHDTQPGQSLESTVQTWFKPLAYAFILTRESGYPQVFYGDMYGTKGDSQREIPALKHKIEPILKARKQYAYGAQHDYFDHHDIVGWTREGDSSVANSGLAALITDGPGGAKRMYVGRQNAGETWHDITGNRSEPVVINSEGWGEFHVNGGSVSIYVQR
Description: The separate reaction mixtures were incubated at 37° C. for 10 minutes. The control reaction mixture contained enzyme, buffer, and starch but no manganese ion. The starch hydrolysis reaction was stopped by combining the reaction mixture with a solution containing DNSA and heating for 30 min at 85° C. The absorbance of the control and test samples was measured at 562 nm to monitor the amount of reducing sugar in each sample.

[5] = molecular target: T2, industrial α-amylase known as Termamyl (Bacillus licheniformis, UniProt P06278); assay: hydrolysis of cooked dent corn starch; format: biochemical; details: cooked dent corn starch 0.5%, pH 5.2, 37° C., 10 min
T2 construct: purchased Novozymes
T2 sequence (P06278 30-512): as above
Description: (§1) The separate reaction mixtures were incubated at 37° C. for 10 minutes. The control reaction mixtures contained enzyme, buffer, and starch but no manganese ion. The starch hydrolysis reaction was stopped by combining the reaction mixture with a solution containing DNSA and heating for 30 min at 85° C. The absorbance of the control and test samples was measured at 562 nm to monitor the amount of reducing sugar in each sample.

[6] = molecular target: T3, β-amylase from sweet potato (Ipomoea batatas, UniProt P10537); assay: hydrolysis of cooked dent corn starch; format: biochemical; details: cooked dent corn starch 0.5%, pH 5.2, 37° C., 10 min
T3 construct: purchased Sigma A-7005
T3 sequence (P10537 whole entry): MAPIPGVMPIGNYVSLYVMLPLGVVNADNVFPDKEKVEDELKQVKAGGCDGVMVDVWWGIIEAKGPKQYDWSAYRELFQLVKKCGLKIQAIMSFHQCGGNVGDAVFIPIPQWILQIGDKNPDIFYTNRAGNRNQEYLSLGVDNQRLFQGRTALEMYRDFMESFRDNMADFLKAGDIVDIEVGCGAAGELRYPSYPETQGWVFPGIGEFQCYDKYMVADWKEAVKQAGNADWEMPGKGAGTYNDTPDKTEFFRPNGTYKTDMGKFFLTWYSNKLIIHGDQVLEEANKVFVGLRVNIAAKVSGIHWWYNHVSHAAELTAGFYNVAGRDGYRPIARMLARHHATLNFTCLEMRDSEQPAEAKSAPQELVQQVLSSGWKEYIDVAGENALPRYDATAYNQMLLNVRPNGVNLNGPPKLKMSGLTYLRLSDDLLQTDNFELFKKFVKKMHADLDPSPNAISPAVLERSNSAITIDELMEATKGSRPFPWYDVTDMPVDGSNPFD
Description: as §1

[7] = test system: glucoamylase from Rhizopus sp.; assay: hydrolysis of cooked dent corn starch; format: biochemical; details: cooked dent corn starch 0.5%, pH 5.2, 37° C., 10 min
Description: as §1

β-amylase from barley = β-amylase from barley (Hordeum vulgare, UniProt P16098); assay: pH effect on hydrolysis of cooked dent corn starch; format: biochemical; details: 1 mM Mn^++; for Relative Activity: cooked dent corn starch 0.5%, 37° C., 10 min, control at pH 5 = 100
β-amylase from barley, sequence (P16098 whole entry): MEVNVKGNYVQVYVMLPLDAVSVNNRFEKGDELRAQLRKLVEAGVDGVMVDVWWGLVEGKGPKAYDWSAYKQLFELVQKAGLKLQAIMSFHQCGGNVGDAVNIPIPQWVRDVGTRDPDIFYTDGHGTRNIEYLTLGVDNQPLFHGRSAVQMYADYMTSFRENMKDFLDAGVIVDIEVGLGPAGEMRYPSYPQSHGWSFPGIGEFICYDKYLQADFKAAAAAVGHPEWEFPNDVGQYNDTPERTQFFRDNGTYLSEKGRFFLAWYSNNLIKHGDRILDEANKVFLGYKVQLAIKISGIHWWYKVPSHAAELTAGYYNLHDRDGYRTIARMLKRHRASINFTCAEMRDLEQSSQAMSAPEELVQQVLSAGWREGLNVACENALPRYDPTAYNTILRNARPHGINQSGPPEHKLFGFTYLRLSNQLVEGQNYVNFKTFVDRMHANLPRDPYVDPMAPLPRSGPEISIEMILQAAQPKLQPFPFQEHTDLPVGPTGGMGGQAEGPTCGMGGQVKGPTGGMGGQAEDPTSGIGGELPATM
Description: The separate reaction mixtures were then incubated at 37° C. for 10 minutes. The control reaction mixture contained enzyme, buffer, and starch but no manganese ion. The starch hydrolysis reaction was stopped by combining the reaction mixture with a solution containing DNSA and heating for 30 min at 85° C. The absorbance of the control and test samples was measured at 562 nm to monitor the amount of reducing sugar in each sample.

[8] = test system: enzyme mixture of purified glucoamylase from mushroom and purified α-amylase from barley; assay: hydrolysis of raw corn starch by enzyme mixture, reducing sugar by DNSA; format: biochemical; details: pH 5.3, 37° C., 20 min

glucoamylase from Aspergillus Niger, sequence (P69328 25-640): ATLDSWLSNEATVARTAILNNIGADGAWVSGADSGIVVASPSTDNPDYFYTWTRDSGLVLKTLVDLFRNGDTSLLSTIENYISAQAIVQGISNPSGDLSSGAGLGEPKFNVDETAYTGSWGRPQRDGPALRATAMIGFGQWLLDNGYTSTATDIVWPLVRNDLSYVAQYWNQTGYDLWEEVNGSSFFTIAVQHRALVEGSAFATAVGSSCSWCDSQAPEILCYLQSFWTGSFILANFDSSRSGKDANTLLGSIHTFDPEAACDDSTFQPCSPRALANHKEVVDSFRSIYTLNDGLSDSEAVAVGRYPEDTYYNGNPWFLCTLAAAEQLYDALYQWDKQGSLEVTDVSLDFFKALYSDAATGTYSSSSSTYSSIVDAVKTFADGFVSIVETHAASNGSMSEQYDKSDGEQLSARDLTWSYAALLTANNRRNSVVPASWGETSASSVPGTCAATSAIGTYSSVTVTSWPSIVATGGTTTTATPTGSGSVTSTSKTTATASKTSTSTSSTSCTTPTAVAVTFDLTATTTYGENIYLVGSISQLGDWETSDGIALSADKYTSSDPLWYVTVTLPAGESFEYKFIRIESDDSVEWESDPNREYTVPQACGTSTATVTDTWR

[Mn+2] [Mn^++, manganese ions]
Relative Activity ([1]; 0.01 mM Mn^++): 94.4%
Relative Activity ([1]; 0.1 mM Mn^++): 111.2%
Relative Activity ([1]; 1 mM Mn^++): 127.1%
Relative Activity ([1]; 10 mM Mn^++): 160.6%
effect on hydrolysis of raw corn starch (in words) ([1]; summary of Table 4): enhances the hydrolysis of raw corn starch
Relative Activity ([2]; 0.01 mM Mn^++, pH 5.3 sodium acetate buffer): 108.3%
Relative Activity ([2]; 0.01 mM Mn^++, pH 7.0 potassium phosphate buffer): 103.5%
Relative Activity ([2]; 0.1 mM Mn^++, pH 5.3 sodium acetate buffer): 125.0%
Relative Activity ([2]; 0.1 mM Mn^++, pH 7.0 potassium phosphate buffer): 103.5%
Relative Activity ([2]; 1 mM Mn^++, pH 5.3 sodium acetate buffer): 145.2%
Relative Activity ([2]; 1 mM Mn^++, pH 7.0 potassium phosphate buffer): 119.6%
Relative Activity ([2]; 10 mM Mn^++, pH 5.3 sodium acetate buffer): 139.9%
Relative Activity ([2]; 10 mM Mn^++, pH 7.0 potassium phosphate buffer): 95.7%
pH dependence of Mn^++ activation (in words) ([2]; pH 5.3 vs 7.0): greater activation at a pH of 5.3 than at 7.0
pH of greatest Mn^++-induced activation ([3]; 1.0 mM Mn^++, pH 3-8 tested): 5.0
Relative Activity ([3]; pH 3, 1.0 mM Mn^++): 98%
Relative Activity ([3]; pH 4, 1.0 mM Mn^++): 146.7%
Relative Activity ([3]; pH 5, 1.0 mM Mn^++): 148.6%
Relative Activity ([3]; pH 6, 1.0 mM Mn^++): 127.8%
Relative Activity ([3]; pH 7, 1.0 mM Mn^++): 103.1%
Relative Activity ([3]; pH 8, 1.0 mM Mn^++): 44.3%
Relative Activity ([4]; 0.01 mM Mn^++, cooked high-amylose V corn starch 0.5%): 116.5%
Relative Activity ([4]; 0.01 mM Mn^++, cooked soluble corn starch 0.5%): 118.3%
Relative Activity ([4]; 0.01 mM Mn^++, cooked waxy corn starch 0.5%): 118.3%
Relative Activity ([4]; 0.1 mM Mn^++, cooked dent corn starch 0.5%): 124.4%
Relative Activity ([4]; 0.1 mM Mn^++, cooked high-amylose V corn starch 0.5%): 135.5%
Relative Activity ([4]; 0.1 mM Mn^++, cooked soluble corn starch 0.5%): 128.1%
Relative Activity ([4]; 0.1 mM Mn^++, cooked waxy corn starch 0.5%): 126.9%
Relative Activity ([4]; 1 mM Mn^++, cooked dent corn starch 0.5%): 128.7%
Relative Activity ([4]; 1 mM Mn^++, cooked soluble corn starch 0.5%): 135.8%
Relative Activity ([4]; 10 mM Mn^++, cooked dent corn starch 0.5%): 147.8%
Relative Activity ([4]; 10 mM Mn^++, cooked high-amylose V corn starch 0.5%): 160.1%
Relative Activity ([4]; 10 mM Mn^++, cooked soluble corn starch 0.5%): 162.7%
Relative Activity ([4]; 10 mM Mn^++, cooked waxy corn starch 0.5%): 155.8%
Relative Activity ([5]; 0.01 mM Mn^++): 114.7%
Relative Activity ([5]; 10 mM Mn^++): 156.3%
Relative Activity ([6]; 0.01 mM Mn^++): 117.6%
Relative Activity ([6]; 0.1 mM Mn^++): 131.4%
Relative Activity ([6]; 1 mM Mn^++): 148.0%
Relative Activity ([6]; 10 mM Mn^++): 215.0%
Relative Activity ([7]; 0.01 mM Mn^++): 112.0%
Relative Activity ([7]; 0.1 mM Mn^++): 123.8%
Relative Activity ([7]; 1 mM Mn^++): 145.1%
Relative Activity ([7]; 10 mM Mn^++): 223.5%
pH range of greatest Mn^++ induced enhancement (β-amylase from barley; cooked dent corn starch, pH 3-8 tested): 5.0-6.0
Relative Activity (β-amylase from barley; pH 3): 0%
Relative Activity (β-amylase from barley; pH 4): 105.8%
Relative Activity (β-amylase from barley; pH 5): 173.1%
Relative Activity (β-amylase from barley; pH 6): 176.9%
Relative Activity (β-amylase from barley; pH 7): 165.4%
Relative Activity (β-amylase from barley; pH 8): 74%
Relative Activity ([8]; 0.01 mM Mn^++): 106.7%
Relative Activity ([8]; 0.1 mM Mn^++): 124.7%
Relative Activity ([8]; 1 mM Mn^++): 142.6%
Relative Activity ([8]; 10 mM Mn^++): 143.5%

— US20080102497A1, “ENZYMATIC HYDROLYSIS OF STARCH” (priority 2006, published 2008)
